Results: patent US6316482A, “Benzamide derivatives having a vasopressin antagonistic activity” (Fujisawa Pharmaceutical Co., Ltd., priority 1996, dated 2001)
Structures can show the parent of a compound that is named as a salt.

Experiments:
[1] = target: Vasopressin 1 (V1) receptor (Homo sapiens, UniProt P37288); assay: Vasopressin 1 (V1) receptor binding; conditions: platelet membranes from normal subjects; competition vs 1.5 nM 3H-vasopressin; 15 minutes at 30° C.; pH 7.4
human V2 receptor = human V2 receptor (Homo sapiens, UniProt P30518); assay: Vasopressin 2 (V2) receptor binding; conditions: membranes of CHO cells expressing human V2 receptor; competition vs 0.5 nM 3H-vasopressin; 2 hours at 22° C.; pH 7.4
human V2 receptor, sequence (P30518 whole entry): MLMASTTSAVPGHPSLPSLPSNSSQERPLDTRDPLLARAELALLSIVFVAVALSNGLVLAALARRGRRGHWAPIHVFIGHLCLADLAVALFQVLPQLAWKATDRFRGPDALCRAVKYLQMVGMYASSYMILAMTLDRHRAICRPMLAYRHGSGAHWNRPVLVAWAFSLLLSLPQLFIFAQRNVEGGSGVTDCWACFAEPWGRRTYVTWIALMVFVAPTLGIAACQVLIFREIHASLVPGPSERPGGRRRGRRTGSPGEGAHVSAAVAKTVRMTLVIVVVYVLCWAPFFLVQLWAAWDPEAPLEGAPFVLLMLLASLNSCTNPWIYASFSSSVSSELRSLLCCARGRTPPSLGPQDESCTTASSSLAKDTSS

Vasopressin 1 (V1) receptor, sequence (P37288 whole entry): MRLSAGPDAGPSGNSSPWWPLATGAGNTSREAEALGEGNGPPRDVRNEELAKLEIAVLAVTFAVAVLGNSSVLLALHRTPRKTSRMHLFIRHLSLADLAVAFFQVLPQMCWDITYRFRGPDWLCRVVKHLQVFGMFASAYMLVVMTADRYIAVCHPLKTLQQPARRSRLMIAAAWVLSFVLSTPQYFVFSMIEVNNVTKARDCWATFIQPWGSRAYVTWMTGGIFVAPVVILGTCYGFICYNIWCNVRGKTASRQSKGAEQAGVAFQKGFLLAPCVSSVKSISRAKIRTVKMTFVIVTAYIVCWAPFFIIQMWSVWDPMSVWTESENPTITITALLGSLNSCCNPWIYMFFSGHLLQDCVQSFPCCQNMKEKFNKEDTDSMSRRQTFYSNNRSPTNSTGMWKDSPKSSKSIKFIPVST

COc1cc(C(=O)N(C)c2ccc(C)cc2OCCCCCC(=O)N2CCN(C)CC2)ccc1C(=O)Nc1cccc2[nH]c(C)nc12 [Example 115-71, 3-Methoxy-N-methyl-4-[2-mehtyl-1H-benzimidazol-4-yl]carbamoyl-N-[4-methyl-2-[5-(4-methylpiperazin-1-yl)-carbonylpent-1-yloxy]phenyl]benzamide dihydrochloride]
IC50 [1]: 0.7 nM

COc1cc(C(=O)N(C)c2ccc(C)cc2OCCCCCC(=O)N2CCN(C)CC2)ccc1C(=O)Nc1cccc2[nH]c(CN3CCN(C)CC3)nc12 [Example 115-81, 3-Methoxy-N-methyl-N-[4-methyl-2-[5-(4-methylpiperazin-1-yl)carbonylpent-1-yloxy]phenyl]-4-[2-[(4-methyl-piperazin-1-yl)methyl]-1H-benzimidazol-4-yl]-carbamoylbenzamide trihydrochloride]
IC50 [1]: 4.5 nM

COc1cc(C(=O)N(C)c2ccc(C)cc2OCCCCCC(=O)N2CCN(C)CC2)ccc1NC(=O)c1cccc2[nH]c(CN)nc12 [Example 39-27, 4-(2-Aminomethyl-1H-benzimidazol-4-yl)carbonylamino-3-methoxy-N-methyl-N-[4-methyl-2-[5-(4-methylpiperazin-1-yl)carbonylpent-1-yloxy]phenyl]benzamidetrihydrochloride]
IC50 [1]: 1.5 nM
IC50 (human V2 receptor): 460 nM

COc1cc(C(=O)N(C)c2ccc(C)cc2OCCCCCC(=O)N2CCN(C)CC2)ccc1NC(=O)c1cccc2[nH]c(CO)nc12 [Example 39-35, 4-(2-Hydroxymethyl-1H-benzimidazol-4-yl)carbonylamino-3-methoxy-N-methyl-N-[4-methyl-2-[5-(4-methylpiperazin-1-yl)carbonylpent-1-yloxy]phenyl]benzamide dihydrochloride]
IC50 [1]: < 1 nM
IC50 (human V2 receptor): 380 nM
